Experiment: Comparison of solubility of derivatives in water
Format: physicochemical
Details: shaken vigorously every 5 minutes for 30 seconds until clear
Protocol: Then the solution was shaken vigorously every 5 minutes for 30 seconds. After 30 minutes, the solution was turbid. Another 1.5 mL of water was added and the solution was shaken vigorously every 5 minutes for 30 seconds, and the solution became clear until 9 mL of water was totally added.
24.2 mg of the cholesterol derivative of the mEG7-OH prepared in Example 9 was dispersed in 50 mL of water, and 5 mL of the mixture was taken out and added with 1.5 mL of water. Then the solution was shaken vigorously every 5 minutes for 30 seconds. After 30 minutes, the solution became turbid. Another 5 mL of water was added and the solution was shaken vigorously every 5 minutes for 30 seconds until 25 mL of water was totally added. 5 mL of the solution was taken out from the diluted solution and operated similarly, and the solution became clear until 10 mL of water was added.
(§1) 111.0 mg of the hexadecanol derivative of the ((mEG3)2-N—C3H6)2—N—C3H6—OH prepared in Example 8 was dispersed in 50 μL of water, and shaken vigorously every 5 minutes for 30 seconds. After 30 minutes, the solution became clear. Another 50 μL of water was added and the solution was shaken vigorously every 5 minutes for 30 seconds, and the solution was still clear until 1.025 mL of water was added.
as §1, with “112.9” for “111.0”, “mEG7-OH” for “((mEG3)2-N—C3H6)2—N—C3H6—OH”, “9” for “8”, “was turbid.” for “became clear.”, “became” for “was still”, “250 μL” for “1.025 mL”
After 30 minutes, the solution was clear. Another 50 μL of water was added and the solution was shaken vigorously every 5 minutes for 30 seconds, and the solution was still clear until 1.025 mL of water was added.
After 30 minutes, the solution was turbid. Another 50 μL of water was added and the solution was shaken vigorously every 5 minutes for 30 seconds. After 30 minutes, the solution became clear.

| Compound | Solubility in water | Solubility in water (listed as cholesterol) | Solubility in water (listed as hexadecanol) | Solubility in water (listed as menthol) |
| --- | --- | --- | --- | --- |
| CC(C)CCC[C@@H](C)[C@H]1CC[C@H]2[C@@H]3CC=C4C[C@@H](O)CC[C@]4(C)[C@H]3CC[C@]12C [Cholesterol, cholesterol] | Less than 0.2 mg/ mg/100 g H2O | less than 0.2 mg/100 g H2O | – | – |
| CCCCCCCCCCCCCCCCO [Hexadecanol, hexadecanol] | Less than 1 mg/ mg/100 g H2O | – | less than 1 mg/100 g H2O | – |
| CC1CCC(C(C)C)C(O)C1 (stereo not drawn) [Menthol, menthol] | Less than 100 mg/ mg/100 g H2O | – | – | less than 100 mg/100 g H2O |

— patent publication US11053185B2, “Dendritic polyethylene glycol derivative, and preparation method and application thereof” (JENKEM TECHNOLOGY CO., LTD. (TIANJIN), priority 2017, dated 2021)
